One test concerns vitamin D deficient rats. The conditions noted are these: 3 weeks.
For test [1], the system named is intestinal calcium absorption (duodenum). The test can be described thus: Stimulation of Intestinal Calcium Absorption in Rat (intestinal 45Ca transport, everted gut sac). To be noted: 12.5 ng/rat, intrajugular, 18 h.
The subject of test [2] is bone calcium mobilization. The test can be described thus: Bone Calcium Mobilization in Rat (plasma Ca increase). The class given is in vivo. To be noted: 12.5 ng/rat, intrajugular, 18 h. The method, then:
Controls received carrier alone. Bone Ca resorption (BCR) was estimated by measuring the blood Ca increase in the treated rats. Blood was collected in heparinized tubes and centrifuged. The resulting plasma was measured for calcium concentration by atomic absorption spectroscopy. Since rats were fed a diet essentially devoid of Ca, plasma Ca increases reflected mobilization of Ca from bone, not intestinal Ca absorption.

Test [3] concerns HL-60 promyelocytic leukemia cells. In words: Inhibition of proliferation of HL-60 cells. The conditions noted are these: Homo sapiens, HL-60, 192 h; for IC50: read-out: ID50 (concentration which reduced the cell number by 50%). The class given is cell-based. The method, then:
(§1) Inhibition of Cell Proliferation and Induction of Cell Differentiation
(§2) Cultures of HL-60 promyelocytic leukemia cells were established in the absence (control) and presence of various concentrations of test compounds. After an 8-day incubation period, the cultures were evaluated for proliferation of tumor cells, cell viability, and cellular differentiation. Proliferation was assessed by directly enumerating the increased number of tumor cells resulting from cell division during incubation. Viability was assessed by dye exclusion technique to learn whether any of the compounds were lethal to the cultured HL-60 cells. Cellular differentiation was evaluated by determining the number of cells which had acquired the enzymes necessary to support a respiratory burst, a characteristic of mature macrophages and granulocytes.
(§3) Tissue culture medium used in these experiments was RPMI-1640 supplemented to 10% v/v with heat-inactivated fetal bovine serum and to an additional 1.6 mM with L-glutamine.
(§4) Test compounds were dissolved in sufficient ethanol to yield stock solutions of 1×10^-2 or 1×10^-3 molar. Reduced lighting was used when working with compounds and stock solutions were stored in the dark at -20° C. in an argon atmosphere. Compounds were diluted in tissue culture medium and added to flasks containing HL-60 cells to achieve the final concentration described in each test.
(§5) The HL-60 tumor cell line was originally derived from a patient with promyelocytic leukemia and was obtained from the American Type Culture Collection. The cells were maintained in liquid culture by serial passage twice weekly in tissue culture medium. […] In any test, three replicate flasks were incubated without compound (control) or in the presence of varying concentrations of test compound. Ethanol, used as the vehicle, was kept constant in all dilutions in each test and had no effect on cell proliferation, viability or cell differentiation at the concentrations used (≤0.1%). After 8 days of incubation at 37° in a humidified atmosphere of 5% CO2 in air, cultures were evaluated for tumor cell proliferation, viability and differentiation.
Quantitation of proliferation was done by enumerating the number of HL-60 cells in each individual flask (3 flasks per experimental point) using an Elzone electronic particle counter. Results are shown as the percent reduction of cell number calculated for each concentration tested according to the formula: [formula] The results are also expressed as the concentration which reduced the cell number by 50% (ID50).

Test [4] has as its target T1, 1,25-(OH)2 D3 receptors (calf intestine) (Bos taurus, UniProt Q28037).
T1 construct: receptor prepared from intestine of chick, rat and calf; from tissue; host or cells: calf proximal small-intestine mucosa, cytosol, 35% ammonium sulphate precipitate
T1 sequence (Q28037 1-426): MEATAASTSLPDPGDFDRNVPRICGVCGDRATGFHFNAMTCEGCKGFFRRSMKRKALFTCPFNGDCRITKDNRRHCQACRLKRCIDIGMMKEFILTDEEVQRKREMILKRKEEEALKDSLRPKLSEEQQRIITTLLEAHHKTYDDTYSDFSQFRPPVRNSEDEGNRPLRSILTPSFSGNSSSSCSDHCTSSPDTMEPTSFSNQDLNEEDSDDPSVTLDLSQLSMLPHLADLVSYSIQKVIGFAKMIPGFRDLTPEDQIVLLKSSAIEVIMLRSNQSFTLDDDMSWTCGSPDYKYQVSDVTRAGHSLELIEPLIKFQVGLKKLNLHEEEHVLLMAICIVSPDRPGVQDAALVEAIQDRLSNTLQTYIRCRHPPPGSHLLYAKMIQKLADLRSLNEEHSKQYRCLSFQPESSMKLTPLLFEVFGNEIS
The test can be described thus: Competitive Binding to 1,25-(OH)2 D3 Intestine Receptors, calf. The conditions noted are these: a/b×100 from amounts displacing 50% of 1,25-(OH)2[3H]D3. The method, then:
(§6) The ability of vitamin D3 metabolites to compete for 1,25-(OH)[^3 H]D3 receptor binding sites was evaluated with receptor prepared from intestine of chick, rat and calf. […] Mucosa was collected and washed three times with 10 volumes of cold KTED buffer. The washed mucosa was homogenized in KTED buffer (20% w/v) using a Polytron Pt20 tissue disruptor. Cytosol was prepared by centrifugation of the homogenized mucosa at 300,000×g for 1 hour. […] The ammonium sulphate treated cytosol was centrifuged at 20,000×g for 10 minutes. The supernatant was discarded and the pellet lyophilized and stored at […] Prior to binding assay the pellet was resuspended in cold binding assay buffer containing 150 mM KCl, 50 mM NaPO4, 1.5 mM EDTA and 5 mM dithiothreitol.

The target of test [5] is T2, 1,25-(OH)2 D3 receptors (chick intestine) (Gallus gallus, UniProt O42392).
T2 construct: receptor prepared from intestine of chick, rat and calf; from tissue; host or cells: chick proximal small-intestine mucosa, cytosol, 35% ammonium sulphate precipitate
T2 sequence (O42392 1-451): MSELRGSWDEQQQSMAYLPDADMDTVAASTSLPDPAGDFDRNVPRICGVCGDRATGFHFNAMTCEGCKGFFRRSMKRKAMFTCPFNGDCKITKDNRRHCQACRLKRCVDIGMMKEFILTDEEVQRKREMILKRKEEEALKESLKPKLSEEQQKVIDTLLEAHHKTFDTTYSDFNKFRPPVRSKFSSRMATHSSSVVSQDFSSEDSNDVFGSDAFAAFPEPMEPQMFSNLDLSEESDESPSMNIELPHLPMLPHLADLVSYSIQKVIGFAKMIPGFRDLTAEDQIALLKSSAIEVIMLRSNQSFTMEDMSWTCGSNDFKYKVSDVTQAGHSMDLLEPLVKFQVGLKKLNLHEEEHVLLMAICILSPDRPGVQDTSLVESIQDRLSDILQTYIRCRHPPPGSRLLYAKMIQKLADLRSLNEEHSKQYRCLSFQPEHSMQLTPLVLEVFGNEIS
The test can be described thus: Competitive Binding to 1,25-(OH)2 D3 Intestine Receptors, chick. To be noted: a/b×100 from amounts displacing 50% of 1,25-(OH)2[3H]D3. As to the method:
as §6

For test [6], the system named is HL-60 promyelocytic leukemia cells. The test can be described thus: Induction of differentiation of HL-60 cells (NBT reduction). The conditions noted are these: for EC50: Homo sapiens, HL-60, 192 h, read-out: ED50 (concentration which induced differentiation of 50% of the cells). It counts as cell-based, human. As to the method:
as §1, §2, §3, §4, §5
Quantitation of differentiated cells was done by the biochemical method of nitroblue tetrazolum (NBT) reduction. One million HL-60 cells were pooled from replicate cultures, centrifuged at 220×g for 10 minutes, and resuspended in 1 ml of Ca^++ -Mg^++ -deficient phosphate buffered saline prepared by supplementing Ca^++ -Mg^++ -free phosphate buffered saline (PBS) to 20% v/v with heat-inactivated fetal bovine serum). Nitroblue tetrazolium was dissolved at 0.5 mg per ml in Ca^++ -Mg^++ -free PBS with gentle heating and frequent mixing. A stock solution of 1 mg tetradecanoyl phorbol acetate (TPA) per ml in ethanol, stored at -20°, was diluted 100-fold with Ca^++ -Mg^++ -free PBS to prepare a working solution. The test was done by adding 1 ml of NBT solution and 0.02 ml of the working TPA solution to the HL-60 cells. After mixing, the tubes were incubated in a 37° water bath for 25 minutes then transferred to ice. Undifferentiated and differentiated cells present in any sample were determined microscopically by surveying a minimum of 300 cells per sample. Cells without pigmented granules (clear cells) were judged to be undifferentiated while those containing greater than 3 blue-black formazan granules were scored as differentiated. Generally, differentiated cells were intensely pigmented clearly indicating the enzymatic conversion of NBT to formazan. Results are expressed as the percentage of differentiated cells present in any sample as calculated according to the formula: [formula] The results are also expressed as the concentration of compound which induced differentiation of 50% of the cells (ED50).

[7] abbreviates: read-out: % Reduction in cell number.
Where [8] appears, read: 8 days, from dose response curves.

Like-named read-outs stand apart in the source and are kept apart here.

Turning to `C=C1/C(=C\C=C2/CCC[C@]3(C)[C@@H]([C@H](C)CCCC(C)(C)O)CC[C@@H]23)C[C@@H](O)C[C@@H]1O` [1,25-(OH)2 D3, reference compound], in the test with vitamin D deficient rats (daily dose 15 ng), the “Bone Mass” value is reported as 156 ± 16 mm^3 /cm^3, the “Serum Ca^2+” value was 11.76 ± 0.16 mg/dL and the “Serum PO4^2-” value came to 7.61 ± 0.31 mg/dL. In the test on vitamin D deficient rats (daily dose 60 ng), the “Bone Mass” value was 296 ± 56 mm^3 /cm^3, the “Serum Ca^2+” value was 11.92 ± 0.40 mg/dL and the “Serum PO4^2-” value turned out to be 6.58 ± 0.30 mg/dL. Moreover, the “% of 1,25-(OH)2 D3 Effect in Rat, intestinal calcium absorption” value in test [1] is on record as 100%. Besides, the “% of 1,25-(OH)2 D3 Effect in Rat, bone calcium mobilization” value in test [2] amounted to 100%.

Regarding `C=C1CC[C@H](O)C/C1=C/C=C1\CCC[C@]2(C)[C@@H]([C@H](C)CC#CC(C)(C)O)CC[C@@H]12` [Compound C, 25-hydroxy-23-yne-cholecalciferol], in test [3] (setting [7]), the inhibition at 0.1 µM came to 0%, the inhibition at 1 µM was found to be 31% and the inhibition at 3 µM stood at 79%. In test [3], the IC50 is 1500 nM. The “Competitive Binding to 1,25-(OH)2 D3 Receptors - % of 1,25-(OH)2 D3 Effect, calf intestine” value in test [4] is listed as 0%. Moreover, the “Competitive Binding to 1,25-(OH)2 D3 Receptors - % of 1,25-(OH)2 D3 Effect, chick intestine” value in test [5] was found to be 0%. The “% Differentiated cells” value in test [6] (10 × 10^-8 M, 8 days) is on record as 5%. In test [6] (100 × 10^-8 M, 8 days), the “% Differentiated cells” value was found to be 27%. The “% Differentiated cells” value in test [6] (300 × 10^-8 M, 8 days) came out at 95%. In test [6], the EC50 is 1500 nM. Moreover, the “% of 1,25-(OH)2 D3 Effect in Rat, intestinal calcium absorption” value in test [1] was 71%. The “% of 1,25-(OH)2 D3 Effect in Rat, bone calcium mobilization” value in test [2] came to 0%.

For `C=C1CC[C@H](O)C/C1=C/C=C1\CCC[C@]2(C)[C@@H]([C@H](C)CC#CC(O)(C(F)(F)F)C(F)(F)F)CC[C@@H]12` [Compound D, 25-hydroxy-23-yne-26,26,26,27,27,27-hexafluorocholecalciferol], the inhibition at 0.01 µM in test [3] (1 × 10^-8 M, 8 days, read-out: % Reduction in cell number) stood at 0%. Moreover, the inhibition at 0.1 µM in test [3] (10 × 10^-8 M, 8 days, read-out: % Reduction in cell number) was found to be 14%. The inhibition at 1 µM in test [3] (100 × 10^-8 M, 8 days, read-out: % Reduction in cell number) was 77%. Moreover, in test [3] (setting [8]), the IC50 amounted to 250 nM. In test [4], the “Competitive Binding to 1,25-(OH)2 D3 Receptors - % of 1,25-(OH)2 D3 Effect, calf intestine” value is given as 0%. For the same molecule, the “Competitive Binding to 1,25-(OH)2 D3 Receptors - % of 1,25-(OH)2 D3 Effect, chick intestine” value in test [5] is listed as 0%. For the same molecule, the “% Differentiated cells” value in test [6] (1 × 10^-8 M, 8 days) is reported as 6%; in test [6] (10 × 10^-8 M, 8 days), 27%; in test [6] (100 × 10^-8 M, 8 days) it was 99%. Besides, the EC50 in test [6] (setting [8]) stood at 200 nM. In addition, the “% of 1,25-(OH)2 D3 Effect in Rat, intestinal calcium absorption” value in test [1] is on record as 0%. For the same molecule, in test [2], the “% of 1,25-(OH)2 D3 Effect in Rat, bone calcium mobilization” value is given as 11%.

Values taken from US4804502A, “Vitamin D compounds” (priority 1988, dated 1989).
